Results published in US7846963B2, “2-oxo-heterocyclic compounds and the pharmaceutical compositions comprising the same” (Korea Research Institute of Bioscience and Biotechnology, priority 2003, dated 2010).

Assays:
[1] = test system: production of nitric oxide (NO) in RAW 264.7 cells; experiment: Inhibition of NO (nitrite) production in LPS-activated RAW 264.7 macrophages, Griess reagent; assay type: cell-based, mouse; details: Table 22, cited in b622 as nitrite/NO production result, LPS 0.3 μg/ml, 24 hours, compounds up to 10 μM, IC50 unit not given
Protocol: To test the inhibiting activity of the compounds prepared from above Examples 1 to 6 on the production of nitric oxide (NO) caused by activated macrophage by lipopolysaccharide (LPS), the amount of accumulated […] in the cells was determined as an indicator of NO production in the medium.
(§1) Each 200 μl of RAW 264.7 cells (ATCC, USA), a mouse macrophage cell line was seeded onto each well of 96-well microtiter plate (Nunc, Sweden) to the concentration ranging from 1×10^6 cells/ml to 5×10^6 cells/ml, and incubated in DMEM (Dulbeco's modified eagles medium) media containing 5% FBS (fetal bovine serum) at 37° C. in 5% CO2 incubator.
(§2) Various concentrations of the compounds of the present invention ranging from […] to 10 μM and LPS (Sigma, USA) in the final concentration of 0.3 μg/ml to activate the cell were treated to activate the cell simultaneously. The treated cells were cultured at 37° C. for 24 hours in 5% CO2 incubator and the cultured cells were collected after the cultivation.
And then, to the collected cell culture, an equal volume of Griess reagent (1% sulfanilamide, 0.1% naphthylethylenediamine dihydrochloride, and 2% phosphoric acid) was added and the culture was incubated at room temperature for 10 mins. The amount of nitrite production was determined by measuring the absorbance at 540 nm versus a NaNO2 standard curve. […]

[2] = test system: production of TNF-alpha in RAW 264.7 cells; experiment: Inhibition of TNF-alpha production in LPS-treated RAW 264.7 cells, ELISA of culture supernatant; assay type: cell-based, mouse; parameters: TNF-alpha inhibition: scale not given here; details: Table 23, LPS 0.3 μg/ml, 24 hours, compounds up to 10 μM, IC50 unit not given
Protocol: To test the inhibiting activity of the compounds prepared from above Examples on the production of TNF-alpha, the concentration of TNF-alpha in the cell supernatant was measured.
as §1
as §2, with “μg/ml” for “μg/ml to activate the cell”, “activated” for “activate the”, “cultivation” for “cultivation.”
And then the concentration of TNF-alpha secreted from the culture supernatant of RAW 264.7 cells was determined by ELISA according to the manufacture's instruction (R&D Systems, Minneapolis, Minn.).
The result was shown in Table 23 (AA: IC50's<1, A: IC50's<5, B: IC50's<10, C: IC50's>10).

SMILES	NO production inhibition [1]	TNF-alpha inhibition [2]
O=C(CCC1=CCN(CCCc2ccc3ccccc3c2)C1=O)NO [Example 56, N-hydroxy-3-[1-(3-naphthalene-2-yl-propyl)-2-oxo-2,5-dihydro-1H-pyrrol-3-yl]-propionamide]	AAA	AAA
Cc1ccc(CCN2CC=C(CCC(=O)NO)C2=O)cc1 [Example 39, N-hydroxy-3-[2-oxo-1-(2-p-tolyl-ethyl)-2,5-dihydro-1H-pyrrol-3-yl]-propionamide]	AAA	AAA
